Results reported in publication PMC4595804, “A strategy to discover decoy chemokine ligands with an anti-inflammatory activity” (Scientific Reports, 2015).

Legend:
CXCR4 = CXCR4 (Homo sapiens, UniProt P61073); conditions: EGFP-CXCR4+ HEK cells, 1 h preincubation
Procedure: The identification of neutraligands relies on the measurement of kinetic-based calcium responses.
Monitoring calcium responses in a time-resolved manner allows the discrimination of compounds binding to the chemokine from those binding to the receptor. This is achieved using a pre-incubation protocol in which the tested compounds are preincubated with the receptor or with the chemokine prior to calcium monitoring. […] These incubation protocols are named Time-Resolved Intracellular Calcium recordings (TRIC-r) allowing the identification of neutraligands versus receptor antagonists.

CCL17 [1] = biological target: T1, CCL17 (Homo sapiens, UniProt Q92583); experiment: Tryptophan fluorescence assay on CCL17; assay type: binding; conditions: 0–25 μM compound
T1 construct: codes for the mature CCL17 or CCL22 with an N-terminal thioredoxin-hexahistidin (TRX- (His)6) tag; thioredoxin (TRX) (N, cleaved yes); (His)6 (N, cleaved yes); made in house; host or cells: E. coli BL21 (DE3)
T1 sequence (Q92583 24-94): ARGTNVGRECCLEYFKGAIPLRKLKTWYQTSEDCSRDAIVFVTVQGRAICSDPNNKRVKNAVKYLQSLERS
Procedure: (§1) Fluorescence measurements were performed on a spectrofluorometer (JobinYvon/Spex) in a quartz microcuvette at 20 °C. CCL17 and CCL22 (1.5 μM in HEPES buffer without BSA) were excited at 285 nm and emission spectra were recorded (300–400 nm). […] The fluorescence emission spectra were corrected by subtracting the emission scan of the compounds alone and data analysis was carried out with fluorescence intensities detected at 340 nm.

CCR4 [2] = biological target: T2, CCR4 (Homo sapiens, UniProt P51679); experiment: TRIC-r calcium assay, antagonist protocol: compound preincubated with CCR4-expressing cells; assay type: cell-based; conditions: primary screen
T2 construct: signal peptide fused to EGFP (N); expressed in transfected cells; host or cells: HEK-293
T2 sequence (P51679 1-360): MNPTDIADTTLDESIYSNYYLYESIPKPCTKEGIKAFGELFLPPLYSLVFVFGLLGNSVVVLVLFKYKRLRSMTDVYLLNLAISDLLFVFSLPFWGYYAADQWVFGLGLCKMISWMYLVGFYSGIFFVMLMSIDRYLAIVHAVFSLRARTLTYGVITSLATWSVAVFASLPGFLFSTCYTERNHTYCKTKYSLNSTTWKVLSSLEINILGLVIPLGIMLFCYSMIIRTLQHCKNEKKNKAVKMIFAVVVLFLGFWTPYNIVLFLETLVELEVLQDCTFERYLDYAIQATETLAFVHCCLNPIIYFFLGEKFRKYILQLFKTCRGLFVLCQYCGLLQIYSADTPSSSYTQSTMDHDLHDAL
Procedure: (§2) Two plates (96-well plates, Greiner) were prepared for the screen: one containing test compounds alone in order to determine their direct agonistic activity, and another one containing test compounds mixed with CCL17 or CCL22 at room temperature for 1 h (neutraligand protocol). The chemokines and test compounds were prepared at a 3× concentration, while digitonin was prepared at a 4× concentration. The CCR4 antagonist, C-021 served as control in the experiment. In the antagonist protocol, compounds were added to the cell plate (one compound per well) and incubated with cells for 30 min at room temperature, while the agonist (CCL17 or CCL22) was added to the ligand plate only.
Dye loaded cells were placed in the FlexStation 3 (Molecular Devices). Calcium mobilization was measured at 401 and 475 nm emission fluorescence after excitation at 355 nm. For the primary screening, the ligands (50μl of chemokine mixed with DMSO or test compounds) were added to the cells at 40 s, followed by digitonin addition (50μl) at 100 s to the cells. […] Raw fluorescence data (at 401 and 475 nm) were exported and the ratio 401/475 was calculated. The calcium response values (height of peak response over baseline) were determined. […] Hit molecules were confirmed by performing concentration-response curves and their half maximal inhibitory concentration (IC50) values were calculated using the Kaleidagraph software.

CCR4+ HUT78 cells = experiment: HUT78 chemotaxis: compounds alone or preincubated with the cells (antagonist protocol); assay type: cell-based, human; conditions: receptor antagonist protocol, 1 μM, 3 nM CCL17 or CCL22
Procedure: Cell migration was carried out in RPMI1640-BSA (0.1%) using Transwell 96-well plates (Corning Costar, 5 μm pore size, polycarbonate membranes). […] Lower wells contained the same medium diluted with DMSO or chemokine (3 nM CCL17 or CCL22).
0.1% BSA using Transwell 96-well plates (Corning Costar, 5µm pore size, polycarbonate […]
the same medium diluted with DMSO or chemokine (3nM CCL17 or CCL22). In neutraligand inhibition studies, prior to their use, CCL17 (a) and CCL22 (b) were pre-incubated with […]
in the lower compartment. For characterization of the antagonist properties, the compounds were pre-incubated with the cells in the upper compartment. C-021 (1µM, stripped bars), the CCR4 receptor antagonist, was used as a control in both incubation protocols. Results are expressed as the percentage of cells that migrated to the lower chamber. Data represent the means±SD. Experiments were performed in triplicate.
(1 picture or pasted object on this page, not shown here)

CCL17 [3] = biological target: T1, CCL17; experiment: TRIC-r calcium assay, neutraligand protocol: compound preincubated with CCL17, EGFP-CCR4+Gqi5+ HEK cells; assay type: cell-based; conditions: neutraligand protocol, control compound
Procedure: EGFP-CCR4^+Gqi5^+HEKcells were loaded with fluorescent Ca^2+-indicator Indo-1 AM (5μM, Interchim) for 45 min at 37 °C. […] Cells (100,000 cells/well, 100μl) were seeded in black clear bottom 96-well plates (Greiner), and centrifuged at 250 × g for 5 min.
as §2
Dye loaded cells were placed in the FlexStation 3 (Molecular Devices). […] For the primary screening, the ligands (50μl of chemokine mixed with DMSO or test compounds) were added to the cells at 40 s, followed by digitonin addition (50μl) at 100 s to the cells. Molecules were screened at a final concentration of 2μg/ml with 5 nM CCL17 or CCL22. […] The calcium response values (height of peak response over baseline) were determined. Hits were selected by comparing the response amplitude at the time of the chemokine addition ± test compound. The Z’ factor[29] was calculated according to the following equation: Z’ = 1-(3SD+ + 3SD−)/|Ave+ − Ave−|, where SD+ and Ave+ are respectively the standard deviation and the mean value of the positive controls (chemokine + DMSO), while SD− and Ave− are respectively the standard deviation and the mean value of the negative controls (HEPES-BSA (0.1%) mixed with DMSO, or cells mixed with C-021). Hit molecules were confirmed by performing concentration-response curves and their half maximal inhibitory concentration (IC50) values were calculated using the Kaleidagraph software.

CCL22 = biological target: T3, CCL22 (Homo sapiens, UniProt O00626); experiment: Tryptophan fluorescence assay on CCL22; assay type: binding; conditions: 0–25 μM compound
T3 construct: codes for the mature CCL17 or CCL22 with an N-terminal thioredoxin-hexahistidin (TRX- (His)6) tag; thioredoxin (TRX) (N, cleaved yes); (His)6 (N, cleaved yes); made in house; host or cells: E. coli BL21 (DE3)
T3 sequence (O00626 25-93): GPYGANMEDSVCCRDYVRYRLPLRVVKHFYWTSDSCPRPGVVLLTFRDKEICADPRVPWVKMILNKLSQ
Procedure: as §1, with “°C.” for “°C. CCL17 and CCL22 (1.5 μM in HEPES buffer without BSA) were excited at 285 nm and emission spectra were recorded (300–400 nm).”

CCR4 [4] = biological target: T2, CCR4; experiment: EGFP-CCR4 receptor surface level / endocytosis on EGFP-CCR4+ HEK cells; assay type: cell-based; conditions: 100 nM chemokine, 30 min, EGFP-CCR4+ HEK cells
Procedure: CCR4 levels were evaluated by flow cytometry (FACSCalibur, BD biosciences) using cell surface labeling of EGFP with monoclonal mouse anti-GFP (Roche Applied Science; 1:100 dilution) as primary antibody and R-phycoerythrin conjugated AffiniPure F (ab’)2 fragment goat anti-mouse (Immunotech; 1/100) as secondary antibody.

CCR4 [5] = biological target: T2, CCR4; experiment: Dose-response of chemokine-induced calcium responses in EGFP-CCR4+Gqi5+ HEK cells; assay type: cell-based; conditions: recombinant chemokine, + Gqi5, 21 °C
Procedure: EGFP-CCR4^+Gqi5^+HEKcells were loaded with fluorescent Ca^2+-indicator Indo-1 AM (5μM, Interchim) for 45 min at 37 °C. The cells were detached in PBS-EDTA (5 mM) for 2 min, suspended in growth medium, pelleted by centrifugation at 320 × g for 5 min, and resuspended in HEPES-BSA buffer (137.5 mM NaCl, 6 mM KCl, 1.25 mM CaCl2, 1.25 mM MgCl2, 0.4 mM NaH2PO4, 5.6 mM glucose, 10 mM HEPES, BSA (0.1%, w/v), pH 7.4). Cells (100,000 cells/well, 100μl) were seeded in black clear bottom 96-well plates (Greiner), and centrifuged at 250 × g for 5 min.
Dye loaded cells were placed in the FlexStation 3 (Molecular Devices). Calcium mobilization was measured at 401 and 475 nm emission fluorescence after excitation at 355 nm. […] Raw fluorescence data (at 401 and 475 nm) were exported and the ratio 401/475 was calculated. The calcium response values (height of peak response over baseline) were determined. […] The Z’ factor[29] was calculated according to the following equation: Z’ = 1-(3SD+ + 3SD−)/|Ave+ − Ave−|, where SD+ and Ave+ are respectively the standard deviation and the mean value of the positive controls (chemokine + DMSO), while SD− and Ave− are respectively the standard deviation and the mean value of the negative controls (HEPES-BSA (0.1%) mixed with DMSO, or cells mixed with C-021). […]

Sequence of CXCR4 (P61073 whole entry): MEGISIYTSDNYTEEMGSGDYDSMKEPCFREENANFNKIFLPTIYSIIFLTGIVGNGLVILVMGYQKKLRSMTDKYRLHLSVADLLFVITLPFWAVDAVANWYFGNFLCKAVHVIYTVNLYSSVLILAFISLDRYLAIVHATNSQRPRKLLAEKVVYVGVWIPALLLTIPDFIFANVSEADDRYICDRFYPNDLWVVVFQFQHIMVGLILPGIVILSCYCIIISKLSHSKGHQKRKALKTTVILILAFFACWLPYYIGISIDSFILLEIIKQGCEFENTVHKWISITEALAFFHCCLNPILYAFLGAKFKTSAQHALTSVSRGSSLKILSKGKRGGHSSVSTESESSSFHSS

Molecule: c1cc(CN2CCCNCCNCCCNCC2)ccc1CN1CCCNCCNCCCNCC1 [AMD3100]
- amplitude of CXCL12 calcium responses, preincubation with the chemokine compared with preincubation with the receptor (CXCR4): much greater

Molecule: COc1cc2nc(N3CCC(N4CCCCC4)CC3)nc(NC3CCCCCC3)c2cc1OC [C-021, reference compound]
- change in tryptophan fluorescence of CCL17 (CCL17 [1]): No significant change
- effect on the response to CCL17 or CCL22 after preincubation with the receptor-expressing cells (CCR4 [2]): abolished responses
- inhibition of CCR4+ HUT78 T cell migration, compound preincubated with the cells (CCR4+ HUT78 cells): 90%
- effect on CCL17 calcium responses after preincubation with the chemokine (CCL17 [3]): not with the chemokine
- change in tryptophan fluorescence of CCL22 (CCL22): No significant change

B1: CCL17: recombinant human chemokine (Thymus and Activation-Regulated Chemokine), CCR4 agonist, produced in E. coli (protein)
chain: ARGTNVGRECCLEYFKGAIPLRKLKTWYQTSEDCSRDAIVFVTVQGRAICSDPNNKRVKNAVKYLQSLERS
modifications: left off: thioredoxin (TRX), N-terminal, cleaved | His6, N-terminal, cleaved
- CCR4 internalization (receptor endocytosis) induced by the chemokine (CCR4 [4]): approximately 43.0 ± 3.0%
- EC50 (CCR4 [5]): 3.7 ± 0.4 nM

B2: CCL22: recombinant human chemokine (Macrophage-Derived Chemokine), CCR4 agonist, produced in E. coli (protein)
chain: GPYGANMEDSVCCRDYVRYRLPLRVVKHFYWTSDSCPRPGVVLLTFRDKEICADPRVPWVKMILNKLSQ
modifications: left off: thioredoxin (TRX), N-terminal, cleaved | His6, N-terminal, cleaved
notes: recombinant human chemokine (Macrophage-Derived Chemokine), CCR4 agonist, produced in E. coli
- CCR4 internalization (receptor endocytosis) induced by the chemokine (CCR4 [4]): 78.0 ± 3.0%
- EC50 (CCR4 [5]): 2.9 ± 0.5 nM
